Experimental data published in patent publication US20200061155A1, “COMPOSITIONS AND METHODS FOR TREATING LYNX2 DISORDERS” (OPHIDION, INC, priority 2017, published 2020).

How the values were obtained:
[1] = system: brain slices from lynx2 knockout (KO) mice; assay: long term depression (LTD) of evoked fEPSPs in brain slices after theta pulse stimulation; format: cell-based, mouse; conditions: ACSF with 20 mM methyllycaconitine; lynx2KO slices; theta pulse stimulation (FIG. 4D)
Experimental: FIG. 4D is a graph of stimulating electrode traces from long term depression (LTD) experiments using extracellular recordings for evoked field excitatory post-synaptic potentials (fEPSPs) in […] (EC) brain slices in ACSF solution with […] methyllycaconitine (MLA) from lynx2 knockout (KO) mice before (left of zero minutes) and after (right of zero minutes) theta pulse stimulations (TSP), according to embodiments of the present invention.
Field excitatory postsynaptic potentials (fEPSPs) were evoked by 0.05 Hz test stimulus though a bipolar stimulating electrode placed on external Capsule (EC), and a glass pipette as recording electrode was filled with ACSF and placed in BLA. […] Access resistances were continuously monitored and neurons with more than 20% change of series resistance were excluded from data analysis.
The plasticity ratio was calculated from the average EPSP amplitude of the last 10 mins of baseline recording and the last 15 mins after high frequency or low stimulus, for LTP and LTD studies, respectively. […] For all experiments, treatment effects were analyzed with one-way ANOVA, followed by the appropriate post hoc tests. […]

lynx2KO mice [2] = assay: light dark box experiment (latency to enter dark enclosed environment); format: in vivo, mouse; conditions: lynx2KO mice under chronic stress with mec vs lynx2KO mice without mec (FIG. 2A)
From the text: FIG. 2A is a graph of the time in seconds (latency) for wild type (WT) (black bars) or lynx2 knock out (KO) (white bars) mice to enter a dark enclosed environment under conditions of saline, chronic stress, or chronic stress with administration of mecamylamine (mec) as indicated, according to embodiments of the present invention.

lynx2KO mice [3] = assay: fear extinction experiment (noise previously paired with electric shock); format: in vivo, mouse; conditions: lynx2KO mice with mec vs lynx2KO mice without mec (FIGS. 2B-2C)
Experimental: FIG. 2B is a graph of fear observed in wild type (black circles) and lynx2KO mice (white triangles) after fear training (an electric shock depicted in yellow) associated with a noise for 24 hours followed by the same noise without the shock to measure the mouse's capability to lose the fear, according to embodiments of the present invention.
FIG. 2C is a graph of fear observed in lynx2KO mice during the fear extinction experiment of FIG. 2B with a group of lynx2KO mice receiving mecamylamine (mec), according to embodiments of the present invention.

[4] = system: basolateral amygdalar neurons of lynx2KO mice; assay: spike timing dependent plasticity (post-pre stimulation), EPSC amplitude, perforated patch-clamp; format: cell-based, mouse; conditions: 10 μM DHPG for 15 min; lynx2KO neurons (FIG. 8E)
Experimental: Spike timing (i.e., Δt in ms) was determined between the onset of the EPSP and the peak of the AP. […] Post-pre stimulation was given tp determine the level of LTD. x-axis is time in minutes, y axis is EPSC amplitude, normalized and presented as a percentage (baseline set to 100). Baseline is EPSC amplitude before post-pre stimulation.
For activation of mGluR receptor with DHPG (FIG. 8E) in a spike-timing dependent paradigm (post-pre stimulation) to elicit LTD. For exploration of the mechanism of anti-Hebbian LTP, mGluR5 agonist DHPG (10 μM, Tocris Bioscience, Bristol, UK) was administered for 15 min when the baseline recorded at least 10 min. […] Baseline is EPSC amplitude before post-pre stimulation.
Pairings were repeated 100 times. Pre-post (spike timings as positive) was set as a 1 EPSP/1 AP pairing (100 repeats at 1 Hz) or post-pre (spike timing as negative) with either 1 AP/1 EPSP pairing (100 repeats at 1 Hz). Spike timing (i.e., Δt in ms) was determined between the onset of the EPSP and the peak of the AP.

CCN1C[C@]2(COC(=O)c3ccccc3N3C(=O)C[C@H](C)C3=O)CC[C@H](OC)[C@@]34[C@@H]5C[C@H]6[C@H](OC)[C@@H]5[C@](O)(C[C@@H]6OC)[C@@](O)([C@@H](OC)[C@H]23)[C@@H]14 [methyllycaconitine]
induced long term depression (LTD) of fEPSPs [1]: able to rescue induced long term depression (LTD)

CNC1(C)C2CCC(C2)C1(C)C (stereo not shown) [mecamylamine]
latency to dark (lynx2KO mice [2]): increased latency to dark | ability to unlearn a fear associated with a noise (fear extinction) (lynx2KO mice [3]): increased ability to unlearn a fear associated with a noise

NC(C(=O)O)c1cc(O)cc(O)c1 (stereo not shown) [DHPG, 3,5-dihydroxyphenylglycine]
synaptic plasticity (EPSC amplitude after post-pre stimulation) [4]: restores the abnormal synaptic plasticity in the lynx2KO neurons to normal levels
